Data from US20240180900A1, “COMPOUNDS AND METHODS FOR THE TARGETED DEGRADATION OF ANDROGEN RECEPTOR” (Arvinas Operations, Inc., priority 2022, published 2024).
“And” between values parts separate entries of the source, which are not always exact repeats. Equal values may be shown once. Read-outs that look alike come from different tables or passages of the source.

How the values were obtained:
AR H875Y/T878A = target: T1, AR H875Y/T878A (Homo sapiens, UniProt P10275, H875Y/T878A); experiment: AR degradation in T-Rex-293 cell line, H875Y/T878A; format: cell-based; conditions: T-Rex-293, ELISA
T1 construct: expressed in transfected cells; host or cells: T-REx-293
T1 sequence (P10275 whole entry H875Y/T878A): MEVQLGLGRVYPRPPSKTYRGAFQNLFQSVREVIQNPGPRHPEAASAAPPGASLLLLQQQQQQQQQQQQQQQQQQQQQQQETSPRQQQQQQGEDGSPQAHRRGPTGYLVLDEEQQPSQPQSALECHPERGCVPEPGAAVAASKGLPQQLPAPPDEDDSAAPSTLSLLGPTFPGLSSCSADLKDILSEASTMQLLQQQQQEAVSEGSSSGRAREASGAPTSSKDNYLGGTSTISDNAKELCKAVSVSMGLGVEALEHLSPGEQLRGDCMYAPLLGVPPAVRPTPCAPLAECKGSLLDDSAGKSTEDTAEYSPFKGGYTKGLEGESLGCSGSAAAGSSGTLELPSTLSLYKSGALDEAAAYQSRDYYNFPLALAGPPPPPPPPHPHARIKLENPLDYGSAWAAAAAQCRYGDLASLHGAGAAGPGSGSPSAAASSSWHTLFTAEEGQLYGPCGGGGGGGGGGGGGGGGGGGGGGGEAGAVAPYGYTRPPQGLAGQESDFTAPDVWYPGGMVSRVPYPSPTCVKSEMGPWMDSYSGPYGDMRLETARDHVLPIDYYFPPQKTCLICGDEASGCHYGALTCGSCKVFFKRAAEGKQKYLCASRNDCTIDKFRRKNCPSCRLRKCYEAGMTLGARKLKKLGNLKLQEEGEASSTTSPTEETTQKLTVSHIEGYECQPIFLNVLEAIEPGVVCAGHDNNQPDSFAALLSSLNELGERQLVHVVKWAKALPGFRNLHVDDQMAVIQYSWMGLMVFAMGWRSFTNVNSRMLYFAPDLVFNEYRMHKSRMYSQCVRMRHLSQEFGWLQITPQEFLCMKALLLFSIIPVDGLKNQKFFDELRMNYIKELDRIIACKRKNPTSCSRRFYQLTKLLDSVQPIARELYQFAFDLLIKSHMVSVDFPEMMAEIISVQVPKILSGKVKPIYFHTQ
Source text: (§1) FIG. 3 is a graph showing Compound A's ability to degrade clinically relevant mutated forms AR.
(§2) To assess the ability of Compound A to degrade variants of the AR, vectors expressing wild-type AR or mutant AR proteins harboring clinically observed mutations in the ligand binding domain (13 with single amino acid changes or 4 with 2 amino acid changes) (Azad A. A., Volik S. V., Wyatt A. W., et al. Androgen receptor gene aberrations in circulating cell-free DNA: biomarkers of therapeutic resistance in castration-resistant prostate cancer. Clin Cancer Res. 2015; 21:2315-2324; Robinson D., Van Allen E. M., Wu Y. M., et al. Integrative clinical genomics of advanced prostate cancer. Cell. 2015; 161:1215-1228; Ledet E. M., Lilly M. B., Sonpavde G., et al. Comprehensive analysis of AR alterations in circulating tumor DNA from patients with advanced prostate cancer. Oncologist.

AR M750T = target: T2, AR M750T (Homo sapiens, UniProt P10275, M750T); experiment: AR degradation in T-Rex-293 cell line, M750T; format: cell-based; conditions: T-Rex-293, ELISA
T2 construct: expressed in transfected cells; host or cells: T-REx-293
T2 sequence (P10275 whole entry M750T): as the sequence (P10275 whole entry H875Y/T878A) above, with M750T, Y875H, A878T counted along it
Source text: as §1, §2

VCaP tumor xenograft = VCaP tumor xenograft study in intact (non-castrated) mice; format: in vivo, mouse
Source text: To mimic higher androgen levels found in an incomplete testosterone suppression environment, intact (non-castrated) mice were employed for a VCaP tumor xenograft study.

[1] = food/PPI effect on single-dose PK in healthy volunteers (phase 1); format: in vivo, human; conditions: for CL/F: read-out: CL/F_Obs, Geometric Mean (Geometric CV %) (converted); for Vd/F: read-out: Vz/F, Geometric Mean (Geometric CV %)
Description: The primary endpoints were AUCinf and Cmax. Additional parameters measured included AUClast and Tmax.
This phase 1, open-label study included a crossover, fed/fasted cohort and a fixed-sequence PPI cohort. For the fed/fasted cohort, healthy male volunteers received a single oral dose of Compound A 200 mg in a fasted state during treatment A and in a fed state, following a high-calorie/high-fat meal, during treatment B. Participants were randomized to a dosing sequence of treatments AB or BA. For the PPI cohort, a single oral dose of Compound A 300 mg was administered alone in a fed state during treatment C, and during treatment D, participants received esomeprazole 40 mg for 5 days prior to a single oral dose of Compound A 300 mg on day 5 in a fed state. Participants were assigned to a fixed-dosing sequence of treatments CD. There was a 24-day washout period between Compound A treatments. PK blood samples were collected predose and at selected times up to 312 hours post-Compound A dose. Primary endpoints were area under the plasma concentration-time curve from the time of dosing extrapolated to infinity (AUCinf) and maximum plasma concentration (Cmax) of Compound A. Secondary endpoints included additional PK parameters and safety and tolerability.
The effect of food and a PPI on the PK of Compound A was evaluated in healthy participants. PK results are presented in Tables 2 and 3 and are summarized here.

AR W742L = target: T3, AR W742L (Homo sapiens, UniProt P10275, W742L); experiment: AR degradation in T-Rex-293 cell line, W742L; format: cell-based; conditions: T-Rex-293, ELISA
T3 construct: expressed in transfected cells; host or cells: T-REx-293
T3 sequence (P10275 whole entry W742L): as the sequence (P10275 whole entry H875Y/T878A) above, with W742L, Y875H, A878T counted along it
Source text: as §1, §2

[2] = test system: receptors, ion channels, transporters, and enzymes; experiment: selectivity screening panel of 44 targets: other targets; format: binding; conditions: 1 μM; interaction = effect greater than 50% of positive control
Description: Compound A was tested at 1 μM in a screening study to assess the interaction of Compound A with a panel of 44 targets, including receptors, ion channels, transporters, and enzymes. Any effect greater than 50% of the positive control for a target was considered to represent an interaction of the test compound with the target.

[3] = safety in healthy volunteers (food/PPI study)
Source text: The study consisted of 2 independent cohorts: an open-label, randomized, 2-period, crossover Fed/Fasted Cohort to determine food effects; and an open-label, 2-period, fixed sequence PPI Cohort to evaluate interactions with esomeprazole.

[4] = test system: GSPT1, Aiolos, Ikaros, CK1α, and SALL4; experiment: cereblon neomorphic substrate degradation in Ramos and SK-N-DZ cells; format: cell-based; conditions: 1 μM
[5] = 200 mg, fed (test) vs fasted (reference)
[6] = 300 mg, fed, esomeprazole 40 mg
[7] = male, human, plasma, oral, 40 mg Esomeprazole + 300 mg
[8] = male, human, plasma, oral, 200 mg, Fasted
[9] = male, human, plasma, oral, 200 mg, Fed
[10] = male, human, plasma, oral, 300 mg, 300 mg Alone
[11] = Fed/Fasted Cohort, 200 mg, 14 healthy participants
[12] = healthy volunteer study, both cohorts

## COc1cc(O[C@H]2C(C)(C)[C@H](NC(=O)c3ccc(N4CCC(CN5CCN(c6ccc(C(=O)N[C@H]7CCC(=O)NC7=O)c(F)c6)CC5)CC4)cc3)C2(C)C)ccc1C#N [Compound A, 4-(4-((1-(4-(((1R,3R)-3-(4-cyano-3-methoxyphenoxy)-2,2,4,4-tetramethylcyclobutyl)carbamoyl)phenyl)piperidin-4-yl)methyl)piperazin-1-yl)-N—((S)-2,6-dioxopiperidin-3-yl)-2-fluorobenzamide]
AR H875Y/T878A
  DC50: 7.7 nM
AR M750T
  DC50: 0.6 nM
VCaP tumor xenograft; 1 mg/kg/day orally QD for 21 days
  tumor growth inhibition (TGI): 34%
VCaP tumor xenograft; 3 mg/kg/day orally QD for 21 days
  tumor growth inhibition (TGI): 74%
VCaP tumor xenograft; 10 mg/kg/day orally QD for 21 days
  tumor growth inhibition (TGI): 98%
[1]; 200 mg single oral dose
  delay of median Tmax, fed vs fasted: ≈ 4 hours
[1]; [5]
  AUCinf Geometric LS Mean Ratio (fed/fasted), relative bioavailability: 306.34% and 306.3%
  AUClast Geometric LS Mean Ratio (fed/fasted), relative bioavailability: 313.03% and 313.0%
  Cmax Geometric LS Mean Ratio (fed/fasted), relative bioavailability: 394.46% and 394.5%
[1]; 300 mg, fed
  AUCinf Geometric LS Mean Ratio (with esomeprazole/alone): 89.2%
  AUClast Geometric LS Mean Ratio (with esomeprazole/alone): 88.1%
  Cmax Geometric LS Mean Ratio (with esomeprazole/alone): 80.16% and 80.2%
[1]; [6]
  reduction in AUCinf with esomeprazole vs Compound A alone: ~11%
  reduction in Cmax with esomeprazole vs Compound A alone: ≈ 20% and ~20%
[1]; 300 mg, moderate-fat fed conditions
  effect of esomeprazole on Compound A exposure: small effect, but not clinically significant
[1]; high fat meal vs fasted, humans
  increase of extent of systemic exposure (AUCinf), fed vs fasted: 3.1 fold and ~3 fold
[1]; male, human, plasma, oral, 40 mg Esomeprazole + 300 mg, read-out: AUCinf-Obs, Geometric Mean (Geometric CV %)
  AUC(0-inf): 9720 ng·h/mL
[1]; male, human, plasma, oral, 40 mg Esomeprazole + 300 mg, read-out: AUClast, Geometric Mean (Geometric CV %)
  AUC(0-t): 9370 ng·h/mL
[1]; [7]
  CL/F: 515 mL/min
  Vd/F: 2920 L
[1]; male, human, plasma, oral, 40 mg Esomeprazole + 300 mg, read-out: Cmax, Geometric Mean (Geometric CV %)
  Cmax: 117 ng/mL
[1]; male, human, plasma, oral, 40 mg Esomeprazole + 300 mg, read-out: T1/2, Geometric Mean (Geometric CV %) (converted)
  half-life: 65.5 h
[1]; male, human, plasma, oral, 40 mg Esomeprazole + 300 mg, read-out: Tmax
  Tmax: 10 h
[1]; male, human, plasma, oral, 200 mg, 200 mg alone, fasted, read-out: AUCinf, Geometric LS Mean
  AUC(0-inf): 3460 ng·h/mL
[1]; male, human, plasma, oral, 200 mg, 200 mg alone, fasted, read-out: AUClast, Geometric LS Mean
  AUC(0-t): 3300 ng·h/mL
[1]; male, human, plasma, oral, 200 mg, 200 mg alone, fasted, read-out: Cmax, Geometric LS Mean
  Cmax: 36 ng/mL
[1]; male, human, plasma, oral, 200 mg, 200 mg alone, fed, read-out: AUCinf, Geometric LS Mean
  AUC(0-inf): 10600 ng·h/mL
[1]; male, human, plasma, oral, 200 mg, 200 mg alone, fed, read-out: AUClast, Geometric LS Mean
  AUC(0-t): 10300 ng·h/mL
[1]; male, human, plasma, oral, 200 mg, 200 mg alone, fed, read-out: Cmax, Geometric LS Mean
  Cmax: 142 ng/mL
[1]; male, human, plasma, oral, 200 mg, Fasted, read-out: AUCinf-Obs, Geometric Mean (Geometric CV %)
  AUC(0-inf): 3460 ng·h/mL
[1]; male, human, plasma, oral, 200 mg, Fasted, read-out: AUClast, Geometric Mean (Geometric CV %)
  AUC(0-t): 3300 ng·h/mL
[1]; [8]
  CL/F: 964 mL/min
  Vd/F: 5450 L
[1]; male, human, plasma, oral, 200 mg, Fasted, read-out: Cmax, Geometric Mean (Geometric CV %)
  Cmax: 36.1 ng/mL
[1]; male, human, plasma, oral, 200 mg, Fasted, read-out: T1/2, Geometric Mean (Geometric CV %) (converted)
  half-life: 65.3 h
[1]; male, human, plasma, oral, 200 mg, Fasted, read-out: Tmax
  Tmax: 7.75 h
[1]; male, human, plasma, oral, 200 mg, Fed, read-out: AUCinf-Obs, Geometric Mean (Geometric CV %)
  AUC(0-inf): 10600 ng·h/mL
[1]; male, human, plasma, oral, 200 mg, Fed, read-out: AUClast, Geometric Mean (Geometric CV %)
  AUC(0-t): 10300 ng·h/mL
[1]; [9]
  CL/F: 315 mL/min
  Vd/F: 1600 L
[1]; male, human, plasma, oral, 200 mg, Fed, read-out: Cmax, Geometric Mean (Geometric CV %)
  Cmax: 142 ng/mL
[1]; male, human, plasma, oral, 200 mg, Fed, read-out: T1/2, Geometric Mean (Geometric CV %) (converted)
  half-life: 58.7 h
[1]; male, human, plasma, oral, 200 mg, Fed, read-out: Tmax
  Tmax: 12 h
[1]; male, human, plasma, oral, 200 mg, fasted, read-out: AUCinf
  AUC(0-inf): 3460 ng·h/mL
[1]; male, human, plasma, oral, 200 mg, fed (high-fat meal), read-out: AUCinf
  AUC(0-inf): 10600 ng·h/mL
[1]; male, human, plasma, oral, 200 mg, under both fed and fasted conditions, read-out: mean T1/2
  half-life: 60 to 76 h
[1]; male, human, plasma, oral, 300 mg with esomeprazole 40 mg, fed, read-out: median Tmax
  Tmax: 10 h
[1]; male, human, plasma, oral, 300 mg, 300 mg Alone, read-out: AUCinf-Obs, Geometric Mean (Geometric CV %)
  AUC(0-inf): 10900 ng·h/mL
[1]; male, human, plasma, oral, 300 mg, 300 mg Alone, read-out: AUClast, Geometric Mean (Geometric CV %)
  AUC(0-t): 10600 ng·h/mL
[1]; [10]
  CL/F: 459 mL/min
  Vd/F: 2320 L
[1]; male, human, plasma, oral, 300 mg, 300 mg Alone, read-out: Cmax, Geometric Mean (Geometric CV %)
  Cmax: 146 ng/mL
[1]; male, human, plasma, oral, 300 mg, 300 mg Alone, read-out: T1/2, Geometric Mean (Geometric CV %) (converted)
  half-life: 58.4 h
[1]; male, human, plasma, oral, 300 mg, 300 mg Alone, read-out: Tmax
  Tmax: 7 h
[1]; male, human, plasma, oral, 300 mg, 300 mg alone, fed, read-out: AUCinf, Geometric LS Mean
  AUC(0-inf): 10900 ng·h/mL
[1]; male, human, plasma, oral, 300 mg, 300 mg alone, fed, read-out: AUClast, Geometric LS Mean
  AUC(0-t): 10600 ng·h/mL
[1]; male, human, plasma, oral, 300 mg, 300 mg alone, fed, read-out: Cmax, Geometric LS Mean
  Cmax: 146 ng/mL
[1]; male, human, plasma, oral, 300 mg, 300 mg alone, fed, read-out: median Tmax
  Tmax: 7 h
[1]; male, human, plasma, oral, 300 mg, 300 mg with esomeprazole, fed, read-out: AUCinf, Geometric LS Mean
  AUC(0-inf): 9720 ng·h/mL
[1]; male, human, plasma, oral, 300 mg, 300 mg with esomeprazole, fed, read-out: AUClast, Geometric LS Mean
  AUC(0-t): 9370 ng·h/mL
[1]; male, human, plasma, oral, 300 mg, 300 mg with esomeprazole, fed, read-out: Cmax, Geometric LS Mean
  Cmax: 117 ng/mL
[1]; male, human, plasma, oral, 300 mg, fed
  delay of median Tmax with esomeprazole: 3 h
[1]; male, human, plasma, po, 200 mg, 200 mg single oral dose, fasted, read-out: median Tmax
  Tmax: 7.75 h
[1]; male, human, plasma, po, 200 mg, 200 mg single oral dose, fed (high-fat meal), read-out: median Tmax
  Tmax: 12 h
AR W742L
  DC50: 2.3 nM
[2]
  interaction with any other target of the panel of 44 targets: No interaction with any other target was identified
[3]; Fed/Fasted Cohort
  severity of TEAEs: All TEAEs were Grade 1
[3]; [11]
  headache (TEAE): 4 (28.6%) participants
  participants reporting TEAEs: 5 (35.7%) participants
  participants with at least one TEAE considered related to Compound A: 3 (21.4%) participants
[3]; Fed/Fasted Cohort, Grade 1
  TRAE dizziness: 1 participant
  TRAE fatigue: 1 participant
  TRAE headache: 2 participants
[3]; PPI Cohort
  TEAEs of Grade 3 or higher: no TEAEs of Grade 3 or higher
[3]; PPI Cohort, 300 mg, 16 healthy participants
  participants reporting TEAEs: 8 (50.0%) participants
[3]; PPI Cohort, pain in the extremity and CRP increased
  participants with Grade 2 events: 2 (12.5%) participants
[3]; healthy male participants, fasting, fed, or with esomeprazole
  tolerability of a single oral dose: generally well tolerated
[3]; [12]
  deaths, SAEs, discontinuations due to AEs: no deaths, SAEs, or participant discontinuations due to AEs
  laboratory results, vital signs, physical examinations, 12-lead ECGs, C-SSRS: no clinically significant findings
[4]
  degradation of GSPT1, Aiolos, Ikaros, CK1α, and SALL4: did not lead to degradation
